In EP0158265A2, “Benzamide and anilide derivatives” (BEECHAM GROUP PLC, priority 1984, dated 1985):

Tested on: von Bezold-Jarisch reflex evoked by 5HT
Experiment: Antagonism of the von Bezold-Jarisch reflex evoked by 5HT in the anaesthetised rat
Assay type: in vivo
Conditions: anaesthetised male rat; compound given intravenously; concentration reducing the 5HT-evoked heart rate response (5-HT usually 6µg/kg i.v.) to 50% of control
Protocol: Antagonism of the von Bezold-Jarisch reflex
The compounds were evaluated for antagonism of the von Bezold-Jarisch reflex evoked by 5HT in the anaesthetised rat according to the following method: • Male rats (Beecham Pharmaceuticals), 250-350g, were anaesthetised with urethane (1.25g/kg intraperitoneally) and blood pressure and heart rate recorded as described by Fozard J.R. et al., J. Cardiovasc. Pharmacol. 2, 229-245 (1980). A submaximal dose of 5-HT (usually 6µg/kg) was given repeatedly by the intravenous route and changes in heart rate quantified. Examples were given intravenously and the concentration required to reduce the 5HT-evoked response to 50% of the control response (ED50) was then determined.

Row | SMILES | ED50 [mg/kg i.v.]
1 | CN1C2CCC1CC(NC(=O)c1cc(Cl)cc(Cl)c1)C2 (stereo not drawn) [(5), 3,5-Dichloro-N-[3α-{8-methyl-8-azabicyclo(3.2.1)octyl}] benzamide] | 0.009
2 | CN1C2CCC1CC(NC(=O)c1cc(Cl)cc(Cl)c1)C2 (stereo not drawn) [(2), 3,5-dichloro-N-[3β-{8-methyl-8-azabicyclo(3.2.1)octyl}] benzamide] | 0.3
